From patent publication US10993993B2, “Pharmaceutical composition for treating muscle atrophy or sarcopenia including glucagon-like peptide (GLP-1) or GLP-1 receptor agonist” (IMMUNOFORGE CO., LTD., priority 2015, dated 2021)
“Also recorded” adds a separate entry of the source. Ends that are not written are not given here.

What was measured:
[1] = tested on: muscle atrophy animal model (dexamethasone); test: Body weight of dexamethasone-treated mice given sitagliptin or GLP-1(32-36)amide (Example 3-1); type: in vivo, C57BL/6J male mice; settings: dexamethasone 20 mg/kg i.p.; sitagliptin 300 mg/kg oral gavage, GLP-1(32-36)amide 5 μg/kg i.p.; FIG. 6
Experimental: (§1) The present inventors treated C57BL/6J male mice (n=10/group) with dexamethasone (20 mg/kg/i.p.) to reduce muscles of the mice, and they examined effects of sitagliptin (300 mg/kg/oral gavage) and GLP-1(32-36)amide (5 μg/kg/i.p.) on the body weights and muscles of the mice.

[2] = tested on: muscle atrophy animal model (dexamethasone); test: Muscle mass of dexamethasone-treated mice given sitagliptin or GLP-1(32-36)amide (Example 3-1); type: in vivo, C57BL/6J male mice; settings: dexamethasone 20 mg/kg i.p.; sitagliptin 300 mg/kg oral gavage, GLP-1(32-36)amide 5 μg/kg i.p.; FIG. 7
Experimental: as §1

[3] = tested on: muscle atrophy animal model (dexamethasone); test: Grip strength of dexamethasone-treated mice given sitagliptin or GLP-1(32-36)amide (Example 3-2); type: in vivo, C57BL/6J male mice; settings: dexamethasone 20 mg/kg i.p.; sitagliptin 300 mg/kg oral gavage, GLP-1(32-36)amide 5 μg/kg i.p.; FIG. 8
Experimental: as §1, with “mice. In detail, the grip strength when all of the paws of the mouse of Example 6 were pulled with the same force was measured by a grip strength machine.” for “mice.”

[4] = tested on: myostatin and MyoD; test: Myostatin and MyoD expression in dexamethasone-treated mice given sitagliptin or GLP-1(32-36)amide (Example 3-3); type: in vivo, C57BL/6J male mice; settings: dexamethasone 20 mg/kg i.p.; sitagliptin 300 mg/kg oral gavage, GLP-1(32-36)amide 5 μg/kg i.p.; FIG. 9
Experimental: as §1, with “mice. Therefore, the present inventors examined a change in the expression level of myostatin, which is a cause of muscle atrophy, and a change in the expression level of the muscle-producing factor MyoD by sitagliptin and GLP-1(32-36)amide.” for “mice.”

[5] = tested on: dexamethasone-induced muscle atrophy or sarcopenia mice; test: Grip strength of dexamethasone-treated mice given long-acting GLP-1(7-36) (Example 2-2); type: in vivo, male C57BL6J mice; settings: dexamethasone 20 mg/kg i.p., Trulicity 1 mg/kg s.c. two times per week, PB1023 3 mg/kg s.c. three times per week, after two weeks, FIGS. 11A and 11B
Experimental: (§2) Specifically, 10-week-old male C57BL6J mice were divided into 10 mice per group (total n=40), and saline and dexamethasone (20 mg/kg) were each intraperitoneally administered to the control and experimental groups each day. The grip strength of the mice was measured on day 9.
(§3) Subsequently, on day 11, the control mice were administered with saline three times per week by subcutaneous injection (Co-vehicle group), whereas the comparative mice were administered with either (i) saline three times per week by subcutaneous injection (Dex-vehicle group), (ii) Trulicity (SEQ ID NO: 5) two times per week by subcutaneous injection (1 mg/kg; Trulicity group), or (iii) PB1023 three times per week by subcutaneous injection (3 mg/kg; PB1023 group).
(§4) Thereafter, the grip strength was measured and a four limb hanging test was performed on day 14, and tissue sampling was performed on day 22.

[6] = tested on: dexamethasone-induced muscle atrophy or sarcopenia mice; test: Muscle mass of dexamethasone-treated mice given long-acting GLP-1(7-36) (Example 2-3); type: in vivo, male C57BL6J mice; settings: dexamethasone 20 mg/kg i.p., Trulicity 1 mg/kg, PB1023 3 mg/kg s.c.; for total muscle mass: after three weeks, vs Dex-vehicle group, FIG. 12A
Experimental: as §2, §3, §4

[7] = tested on: muscle atrophy-induced mice (dexamethasone); test: Body weight of dexamethasone-induced muscle atrophy mice treated with exendin-4 (Example 1-1); type: in vivo, C57BL/6J male mice; settings: exendin-4 100 ng/mouse i.p. 12 days following dexamethasone 200 mg/kg i.p. 8 days; vs dexamethasone alone; from day 11; FIG. 1
Experimental: It is known that muscle atrophy is caused by chronic diseases (chronic renal failure, chronic heart failure, chronic obstructive disease, etc.), and caused by administration of a high dose of a drug such as dexamethasone. Thus, animal models (C57BL/6J male mice) were treated with dexamethasone to prepare sarcopenia models. When sarcopenia occurred, effects of exendin-4 were investigated.
(§5) In detail, control mice which were not administered with dexamethasone or exendin-4, mice in which muscle atrophy was induced by intraperitoneal injection of dexamethasone (200 mg/kg) for 8 days, comparative mice which were intraperitoneally injected with exendin-4 (100 ng/mouse) for 12 days, and mice in which muscle atrophy was treated by intraperitoneal injection of exendin-4 (100 ng/mouse) for 12 days following intraperitoneal injection of dexamethasone (200 mg/kg) for 8 days were prepared. While these mice were raised for 20 days, changes in their body weights were measured (FIG. 1).

[8] = tested on: muscle atrophy-induced mice (dexamethasone); test: Skeletal muscle weights of muscle atrophy-induced mice treated with exendin-4 (Example 1-2); type: in vivo, C57BL/6J male mice; settings: exendin-4 100 ng/mouse i.p. 12 days following dexamethasone 200 mg/kg i.p. 8 days; FIG. 2
Experimental: as §5
The control mice (control), dexamethasone-induced muscle atrophy mice, exendin-4-treated comparative mice, and muscle atrophy-treated mice treated with exendin-4 following treatment of dexamethasone, which were prepared in Example 1-1, were sacrificed, and total weights of the skeletal muscles of the respective mice were measured. Quadratus muscles, gastrocnemus muscles, tibialis anterior muscles, soleus muscles, and extensor digitorum longus muscles constituting the skeletal muscles were each separated, and their weights were compared (FIG. 2).

[9] = tested on: muscle atrophy-induced mice (dexamethasone); test: Grip strength of muscle atrophy-induced mice treated with exendin-4 (Example 1-3); type: in vivo, C57BL/6J male mice; settings: exendin-4 100 ng/mouse i.p. 12 days following dexamethasone 200 mg/kg i.p. 8 days; FIG. 3
Experimental: as §5
The control mice (control), dexamethasone-induced muscle atrophy mice, exendin-4-treated comparative mice, and muscle atrophy-treated mice treated with exendin-4 following treatment of dexamethasone, which were prepared in Example 1-1, were subjected to measurement of grip strength to investigate whether muscle functions were recovered (FIG. 3). In this regard, a force measured by a grip strength machine when all of the paws of a mouse were pulled with the same force was considered as the grip strength.

[10] = tested on: myostatin, atrogin-1, MuRF1, MyoD and myogenin genes; test: Expression of muscle protein-destroying and -producing genes in muscle tissue, PCR (Example 1-4); type: in vivo, C57BL/6J male mice; settings: exendin-4 following dexamethasone, FIG. 4
Experimental: as §5
It is known that when muscle atrophy occurs, expression of muscle protein-destroying genes (myostatin, atrogin-1, and MuRF1) is increased and expression of muscle protein-producing genes (MyoD and myogenin) is decreased; thus, this was to be examined That is, muscle tissues were removed from the control mice (control), dexamethasone-induced muscle atrophy mice, exendin-4-treated comparative mice, and muscle atrophy-treated mice treated with exendin-4 following treatment of dexamethasone, which were prepared in Example 1-1, and total RNAs were obtained from the muscle tissues. cDNAs were synthesized therefrom, each gene was amplified from the synthesized cDNA by PCR, and changes in the expression levels thereof were compared (FIG. 4).

[11] = tested on: myostatin, atrogin-1, and MuRF1 in C2C12 myocytes; test: Expression of muscle atrophy-related genes in dexamethasone-treated C2C12 myocytes (Example 1-5); type: cell-based; settings: 20 nM exendin-4 6 hours following 1 μM dexamethasone 12 hours, FIG. 5
Experimental: A myoblast cell line C2C12 was differentiated into myocytes by culturing in a medium containing 2% (v/v) horse serum for 5 days. Control myocytes (control) prepared from the differentiated myocytes without any treatment, myocytes in which muscle atrophy symptoms were induced by treatment of 1 μM dexamethasone for 12 hours, comparative myocytes treated with 20 nM exendin-4 for 6 hours, and experimental myocytes in which muscle atrophy symptoms were treated with 20 nM exendin-4 for 6 hours following treatment of 1 μM dexamethasone for 12 hours were each prepared. Expression levels of muscle atrophy-related genes (myostatin, atrogin-1, and MuRF1) were compared in each of the myocytes (FIG. 5).

## N[C@@H](CC(=O)N1CCn2c(nnc2C(F)(F)F)C1)Cc1cc(F)c(F)cc1F [sitagliptin]
[1]
  body weight: increased
[2]
  muscle mass: increased
[3]
  grip strength: increased again
[4]
  MyoD expression: increased again
  myostatin expression: decreased again

## GLP-1(32-36)amide (LVKGR-NH2)
[1]
  body weight: increased
[2]
  muscle mass: increased
[3]
  grip strength: increased again
[4]
  MyoD expression: increased again
  myostatin expression: decreased again

## dulaglutide [Trulicity]
[5]
  grip strength: improved to a significant level
[5]; listed as dulaglutide
  grip strength: enhanced
[6]; B to F of FIG. 12
  muscle mass of EDL (Extensor digitorum longus) and QD (Quadratus): statistical significance was confirmed by an increase in muscle mass
  muscle mass of TA (Tibialis anterior), Sol (Soleus), and GA (Gastrocnemius): tendency of increasing muscle mass
[6]
  total muscle mass: significantly increased compared to the Dex-vehicle group
[6]; listed as dulaglutide
  total muscle mass: muscle mass was increased

## exendin-4
[7]
  body weight: increase in the body weight was observed; also recorded: reduced body weight was restored
[8]
  skeletal muscle mass (all kinds of skeletal muscles): increased muscle mass similar to that of the control or comparative group; also recorded: reduced skeletal muscle mass was restored
[9]
  grip strength: remarkably higher level of grip strength than the muscle atrophy-induced mice; also recorded: reduced grip strength was restored
[10]
  relative expression levels of muscle protein-destroying genes (myostatin, atrogin-1, and MuRF1): lowest relative expression levels; also recorded: decreased
  relative expression levels of muscle protein-producing genes (MyoD and myogenin): highest relative expression levels; also recorded: increased
[11]
  expression levels of muscle atrophy-related genes (myostatin, atrogin-1, and MuRF1): remarkably decreased expression levels
